Experimental data: patent US12655116B2, “Substituted isophthalic acid diamides” (Bayer Aktiengesellschaft, priority 2020, dated 2026)

How the values were obtained:
ABUTH [1] = experiment: Pre-emergence herbicidal action against ABUTH; assay type: in vivo, Abutilon theophrasti; conditions: Abutilon theophrasti, 504 h, 80 g/ha, scored visually after 3 weeks vs untreated controls (100% = plants have died, 0% = like control plants)
How it was run: (§1)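 Seeds sown in sandy loam, soil-covered; compound sprayed on soil surface pre-emergence. Application: WP/EC, 600–800 l/ha, 0.2% wetting agent. Readout: visual % damage at 3 weeks.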

ALOMY = experiment: Pre-emergence herbicidal action against ALOMY; assay type: in vivo, Alopecurus myosuroides; conditions: Alopecurus myosuroides, 504 h; 80 g/ha, pre-emergence, scored visually after 3 weeks vs untreated controls (100% = plants have died, 0% = like control plants)
How it was run: as §1

AMARE [2] = experiment: Pre-emergence herbicidal action against AMARE; assay type: in vivo, Amaranthus retroflexus; conditions: Amaranthus retroflexus, 504 h, scored visually after 3 weeks vs untreated controls, 100% = plants have died, 0% = like control plants
How it was run: as §1

AVEFA [3] = experiment: Pre-emergence herbicidal action against AVEFA; assay type: in vivo, Avena fatua; conditions: Avena fatua, 504 h; 80 g/ha, pre-emergence
How it was run: as §1

ECHCG [4] = experiment: Pre-emergence herbicidal action against ECHCG; assay type: in vivo, Echinochloa crus-galli; conditions: Echinochloa crus-galli, 504 h
How it was run: as §1

MATIN [5] = experiment: Pre-emergence herbicidal action against MATIN; assay type: in vivo, Matricaria inodora; conditions: Tripleurospermum inodorum, 504 h
How it was run: as §1

PHBPU [6] = experiment: Pre-emergence herbicidal action against PHBPU; assay type: in vivo, Pharbitis purpurea; conditions: Ipomoea purpurea, 504 h, dosage 80 g/ha
How it was run: as §1

POLCO = experiment: Pre-emergence herbicidal action against POLCO; assay type: in vivo, Polygonum convolvulus; conditions: Fallopia convolvulus, 504 h
How it was run: as §1

SETVI [7] = experiment: Pre-emergence herbicidal action against SETVI; assay type: in vivo, Setaria viridis; conditions: Setaria viridis, 504 h
How it was run: as §1

VERPE [8] = experiment: Pre-emergence herbicidal action against VERPE; assay type: in vivo, Veronica persica; conditions: Veronica persica, 504 h, dosage 80 g/ha
How it was run: as §1

VIOTR [9] = experiment: Pre-emergence herbicidal action against VIOTR; assay type: in vivo, Viola tricolor; conditions: Viola tricolor, 504 h
How it was run: as §1

DIGSA [10] = experiment: Pre-emergence herbicidal action against DIGSA; assay type: in vivo, Digitaria sanguinalis; conditions: Digitaria sanguinalis, 504 h, dosage 80 g/ha
How it was run: as §1

ABUTH [11] = experiment: Post-emergence herbicidal action against ABUTH; assay type: in vivo, Abutilon theophrasti; conditions: Abutilon theophrasti, 504 h, visual assessment about 3 weeks after treatment vs untreated controls
How it was run: (§2)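 Percent herbicidal action is rated by eye about 3 weeks after treatment against untreated controls, where 100% means dead plants and 0% means like controls. Plants in sandy loam are sprayed on green parts at the one-leaf stage with aqueous WP or EC preparations at 600 to 800 l/ha plus 0.2% wetting agent.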

AMARE [12] = experiment: Post-emergence herbicidal action against AMARE; assay type: in vivo, Amaranthus retroflexus; conditions: Amaranthus retroflexus, 504 h, 20 g/ha, visual assessment about 3 weeks after treatment, 100% = plants have died, 0% = like control plants
How it was run: as §2

AVEFA [13] = experiment: Post-emergence herbicidal action against AVEFA; assay type: in vivo, Avena fatua; conditions: Avena fatua, 504 h, 20 g/ha, visual assessment about 3 weeks after treatment, 100% = plants have died, 0% = like control plants
How it was run: as §2

ECHCG [14] = experiment: Post-emergence herbicidal action against ECHCG; assay type: in vivo, Echinochloa crus-galli; conditions: Echinochloa crus-galli, 504 h
How it was run: as §2

MATIN [15] = experiment: Post-emergence herbicidal action against MATIN; assay type: in vivo, Matricaria inodora; conditions: Tripleurospermum inodorum, 504 h
How it was run: as §2

PHBPU [16] = experiment: Post-emergence herbicidal action against PHBPU; assay type: in vivo, Pharbitis purpurea; conditions: Ipomoea purpurea, 504 h, dosage 20 g/ha
How it was run: as §2

SETVI [17] = experiment: Post-emergence herbicidal action against SETVI; assay type: in vivo, Setaria viridis; conditions: Setaria viridis, 504 h
How it was run: as §2

VERPE [18] = experiment: Post-emergence herbicidal action against VERPE; assay type: in vivo, Veronica persica; conditions: Veronica persica, 504 h, 20 g/ha
How it was run: as §2

VIOTR [19] = experiment: Post-emergence herbicidal action against VIOTR; assay type: in vivo, Viola tricolor; conditions: Viola tricolor, 504 h
How it was run: as §2

DIGSA [20] = experiment: Post-emergence herbicidal action against DIGSA; assay type: in vivo, Digitaria sanguinalis; conditions: Digitaria sanguinalis, 504 h
How it was run: as §2

**Q.** For COc1c(C(=O)Nc2nnnn2C)ccc(C(F)(F)F)c1C(=O)NC1CC1 [Example 1-58], which pest or weed control at 80 g/ha (ABUTH [1]) is on record?
**A.** 80%

**Q.** And the pest or weed control at 80 g/ha (ALOMY)?
**A.** 90%

**Q.** And the pest or weed control at 20 g/ha (AMARE [2]; 20 g/ha)?
**A.** 100%

**Q.** What about the pest or weed control at 80 g/ha (AMARE [2]; 80 g/ha) of the same molecule?
**A.** 100%

**Q.** And the pest or weed control at 80 g/ha (AVEFA [3])?
**A.** 80%

**Q.** What about the pest or weed control at 20 g/ha (ECHCG [4]; 20 g/ha) of the same molecule?
**A.** 100%

**Q.** What about the pest or weed control at 80 g/ha (ECHCG [4]; 80 g/ha) of the same molecule?
**A.** 100%

**Q.** What about the pest or weed control at 20 g/ha (MATIN [5]; dosage 20 g/ha) of the same molecule?
**A.** 90%

**Q.** And the pest or weed control at 80 g/ha (MATIN [5]; dosage 80 g/ha)?
**A.** 100%

**Q.** And the pest or weed control at 80 g/ha (PHBPU [6])?
**A.** 90%

**Q.** What about the pest or weed control at 20 g/ha (POLCO; dosage 20 g/ha) of the same molecule?
**A.** 80%

**Q.** And the pest or weed control at 80 g/ha (POLCO; dosage 80 g/ha)?
**A.** 90%

**Q.** What about the pest or weed control at 20 g/ha (SETVI [7]; dosage 20 g/ha) of the same molecule?
**A.** 100%

**Q.** What about the pest or weed control at 80 g/ha (SETVI [7]; dosage 80 g/ha) of the same molecule?
**A.** 100%

**Q.** What about the pest or weed control at 80 g/ha (VERPE [8]) of the same molecule?
**A.** 100%

**Q.** And the pest or weed control at 20 g/ha (VIOTR [9]; dosage 20 g/ha)?
**A.** 100%

**Q.** And the pest or weed control at 80 g/ha (VIOTR [9]; dosage 80 g/ha)?
**A.** 100%

**Q.** What about the pest or weed control at 80 g/ha (DIGSA [10]) of the same molecule?
**A.** 80%

**Q.** What about the pest or weed control at 5 g/ha (ABUTH [11]; dosage 5 g/ha) of the same molecule?
**A.** 90%

**Q.** What about the pest or weed control at 20 g/ha (ABUTH [11]; dosage 20 g/ha) of the same molecule?
**A.** 90%

**Q.** What about the pest or weed control at 20 g/ha (AMARE [12]) of the same molecule?
**A.** 100%

**Q.** What about the pest or weed control at 20 g/ha (AVEFA [13]) of the same molecule?
**A.** 90%

**Q.** What about the pest or weed control at 5 g/ha (ECHCG [14]; dosage 5 g/ha) of the same molecule?
**A.** 90%

**Q.** And the pest or weed control at 20 g/ha (ECHCG [14]; dosage 20 g/ha)?
**A.** 90%

**Q.** What about the pest or weed control at 5 g/ha (MATIN [15]; dosage 5 g/ha) of the same molecule?
**A.** 80%

**Q.** What about the pest or weed control at 20 g/ha (MATIN [15]; dosage 20 g/ha) of the same molecule?
**A.** 90%

**Q.** And the pest or weed control at 20 g/ha (PHBPU [16])?
**A.** 90%

**Q.** What about the pest or weed control at 5 g/ha (SETVI [17]; dosage 5 g/ha) of the same molecule?
**A.** 100%

**Q.** What about the pest or weed control at 20 g/ha (SETVI [17]; dosage 20 g/ha) of the same molecule?
**A.** 100%

**Q.** And the pest or weed control at 20 g/ha (VERPE [18])?
**A.** 80%

**Q.** And the pest or weed control at 5 g/ha (VIOTR [19]; 5 g/ha)?
**A.** 90%

**Q.** And the pest or weed control at 20 g/ha (VIOTR [19]; 20 g/ha)?
**A.** 100%

**Q.** And the pest or weed control at 5 g/ha (DIGSA [20]; 5 g/ha)?
**A.** 100%

**Q.** And the pest or weed control at 20 g/ha (DIGSA [20]; 20 g/ha)?
**A.** 100%
